For data set [1], the system named is BMMC. Kind of data set: Cytotoxicity against C57/BL6 mouse BMMC cells assessed as reduction in cell viability at 10 uM incubated for 24 hrs by CCK-8 assay. It is filed as toxicity, cell-based. A general note: Formazan colour is commonly taken as a measure of viable cells.
In data set [2] the test system is BMMC. Kind of data set: Anti-osteoclastogenic activity in C57/BL6 mouse BMMC cells assessed as inhibition of RANKL-induced osteoclast differentiation at 0.01 uM incubated for 5 to 7 days in presence of M-CSF by TRAP staining based microscopic analysis relative to control. The class given is functional. The note with it: time 5-7 day.
Data set [3] deals with BMMC. Kind of data set: Anti-osteoclastogenic activity in C57/BL6 mouse BMMC cells assessed as inhibition of RANKL-induced osteoclast differentiation at 0.1 uM incubated for 5 to 7 days in presence of M-CSF by TRAP staining based microscopic analysis relative to control. The class given is functional. The note with it: time 5-7 day.
The test system of data set [4] is BMMC. Kind of data set: Anti-osteoclastogenic activity in C57/BL6 mouse BMMC cells assessed as inhibition of RANKL-induced osteoclast differentiation at 1 uM incubated for 5 to 7 days in presence of M-CSF by TRAP staining based microscopic analysis relative to control. As to conditions: time 5-7 day. It is filed as functional.
Data set [5] has as its system BMMC. Kind of data set: Anti-osteoclastogenic activity in C57/BL6 mouse BMMC cells assessed as inhibition of RANKL-induced osteoclast differentiation at 5 uM incubated for 5 to 7 days in presence of M-CSF by TRAP staining based microscopic analysis relative to control. The class given is functional. As to conditions: time 5-7 day.
The test system of data set [6] is BMMC. Kind of data set: Anti-osteoclastogenic activity in C57/BL6 mouse BMMC cells assessed as inhibition of RANKL-induced osteoclast differentiation incubated for 5 to 7 days in presence of M-CSF by TRAP staining based microscopic analysis relative to control. The class given is functional, cell-based.

This passage reports Activity, inhibition and IC50 results from ChEMBL document CHEMBL5321281, “Synthesis and Biological Evaluation of Heterocyclic Ring-Fused 20(S)-Protopanaxadiol Derivatives as Potent Antiosteoporosis Agents” (J Med Chem, 2023).

By inhibition is commonly meant the share of the control response that was lost under treatment. Turning to `Cc1ncc2c(n1)C(C)(C)[C@@H]1CC[C@]3(C)[C@H](C[C@@H](O)[C@@H]4[C@@H]([C@@](C)(O)CCCC(C)C)CC[C@]43C)[C@@]1(C)C2`, the Activity entry with BMMC [1] was “>= 100%”. The inhibition at 0.01 µM in the data set with BMMC [2] came out at 9.2%. Also, the inhibition at 0.1 µM in the data set on BMMC [3] stood at 96%.

In the case of `CC(=O)O[C@@H]1C[C@@H]2[C@@]3(C)Cc4cnc(C)nc4C(C)(C)[C@@H]3CC[C@@]2(C)[C@]2(C)CC[C@H]([C@@](C)(O)CCC=C(C)C)[C@@H]12`, the Activity result with BMMC [1] is given as “>= 100%”. Further, in the data set with BMMC [2], the inhibition at 0.01 µM was 6.68%. Moreover, the inhibition at 0.1 µM in the data set on BMMC [3] is 62.2%.

Turning to `CC(C)=CCC[C@](C)(O)[C@H]1CC[C@]2(C)[C@@H]1[C@H](O)C[C@@H]1[C@@]3(C)Cc4cncnc4C(C)(C)[C@@H]3CC[C@]12C`, the Activity entry with BMMC [1] is “>= 100%”. Besides, in the data set on BMMC [4], the inhibition at 1 µM was found to be 95.3%. For the same molecule, in the data set with BMMC [3], the inhibition at 0.1 µM worked out at 51.9%. In the data set on BMMC [5], the inhibition at 5 µM came to 100%.

Consider `CC(C)=CCC[C@](C)(O)[C@H]1CC[C@]2(C)[C@@H]1[C@H](O)C[C@@H]1[C@@]3(C)Cc4cnc(-c5ccccc5)nc4C(C)(C)[C@@H]3CC[C@]12C`, for which, in the data set with BMMC [1], the Activity result is “>= 100%”. In addition, the inhibition at 1 µM in the data set on BMMC [4] was found to be 45.5%. The inhibition at 0.1 µM in the data set on BMMC [3] was found to be 0%.

Regarding `CC(C)=CCC[C@](C)(O)[C@H]1CC[C@]2(C)[C@@H]1[C@H](O)C[C@@H]1[C@@]3(C)Cc4cnn(-c5ccccc5)c4C(C)(C)[C@@H]3CC[C@]12C`, the Activity result in the data set on BMMC [1] is given as “>= 100%”. Also, the inhibition at 1 µM in the data set on BMMC [4] is 0%. Further, the inhibition at 5 µM in the data set on BMMC [5] is 12.9%.

For `CC(C)=CCC[C@](C)(O)[C@H]1CC[C@]2(C)[C@@H]1[C@@H](O)C[C@@H]1[C@@]3(C)Cc4cnc(C)nc4C(C)(C)[C@@H]3CC[C@]12C`, the Activity result in the data set on BMMC [1] is listed as “>= 100%”. For the same molecule, in the data set on BMMC [2], the inhibition at 0.01 µM was 0%. In addition, the inhibition at 0.1 µM with BMMC [3] came out at 84.4%.

Take `CC(C)=CCC[C@](C)(O)[C@H]1CC[C@]2(C)[C@@H]1C(=O)C[C@@H]1[C@@]3(C)Cc4cnc(C)nc4C(C)(C)[C@@H]3CC[C@]12C`: in the data set on BMMC [1], the Activity entry was “>= 100%”. For the same molecule, in the data set on BMMC [2], the inhibition at 0.01 µM stood at 8.68%. The inhibition at 0.1 µM with BMMC [3] was determined as 75.8%.

For the molecule `CCOc1ncc2c(n1)C(C)(C)[C@@H]1CC[C@]3(C)[C@H](C[C@@H](O)[C@@H]4[C@@H]([C@@](C)(O)CCC=C(C)C)CC[C@]43C)[C@@]1(C)C2`, the Activity in the data set on BMMC [1] was 86.9%. Moreover, the inhibition at 1 µM with BMMC [4] was 94.1%. The inhibition at 0.1 µM with BMMC [3] worked out at 45.7%.

On to `CC(C)=CCC[C@](C)(O)[C@H]1CC[C@]2(C)[C@@H]1[C@H](O)C[C@@H]1[C@@]3(C)Cc4nccnc4C(C)(C)[C@@H]3CC[C@]12C`, for which, in the data set with BMMC [1], the Activity entry is “>= 100%”. For the same molecule, in the data set with BMMC [4], the inhibition at 1 µM was found to be 43.7%. Further, in the data set on BMMC [5], the inhibition at 5 µM came to 100%.

Regarding `COc1ncc2c(n1)C(C)(C)[C@@H]1CC[C@]3(C)[C@H](C[C@@H](O)[C@@H]4[C@@H]([C@@](C)(O)CCC=C(C)C)CC[C@]43C)[C@@]1(C)C2`, the Activity result with BMMC [1] is given as “>= 100%”. The inhibition at 1 µM with BMMC [4] amounted to 93.7%. The inhibition at 0.1 µM in the data set with BMMC [3] was determined as 52.6%.

As for `CC(C)=CCC[C@](C)(O)[C@H]1CC[C@]2(C)[C@@H]1/C(=N/O)C[C@@H]1[C@@]3(C)Cc4cnc(C)nc4C(C)(C)[C@@H]3CC[C@]12C`, in the data set with BMMC [1], the Activity entry is “>= 100%”. Also, in the data set on BMMC [2], the inhibition at 0.01 µM was 0%. Further, in the data set on BMMC [3], the inhibition at 0.1 µM was 61.1%.

Take `CC(C)=CCC[C@](C)(O)[C@H]1CC[C@]2(C)[C@@H]1[C@H](O)C[C@@H]1[C@@]3(C)Cc4cn[nH]c4C(C)(C)[C@@H]3CC[C@]12C`: in the data set on BMMC [1], the Activity entry was “>= 100%”. Further, the inhibition at 1 µM in the data set with BMMC [4] was found to be 41.2%. Moreover, the inhibition at 5 µM in the data set with BMMC [5] stood at 84.8%.

With `CC(C)=CCC[C@](C)(O)[C@H]1CC[C@]2(C)[C@@H]1[C@H](O)C[C@@H]1[C@@]3(C)Cc4cnc(C)nc4C(C)(C)[C@@H]3CC[C@]12C`, in the data set on BMMC [1], the Activity result is “>= 100%”. For the same molecule, the inhibition at 0.01 µM in the data set on BMMC [2] turned out to be 34.5%. For the same molecule, the inhibition at 1 µM in the data set on BMMC [4] was found to be 100%. The inhibition at 0.1 µM in the data set with BMMC [3] was 96.8%.

For `CC(C)=CC/C=C(\C)[C@H]1CC[C@]2(C)[C@@H]1[C@H](O)C[C@@H]1[C@@]3(C)Cc4cnc(C)nc4C(C)(C)[C@@H]3CC[C@]12C`, the Activity entry with BMMC [1] is listed as “>= 100%”. Moreover, the inhibition at 0.01 µM with BMMC [2] was 27.4%. Further, the inhibition at 0.1 µM in the data set on BMMC [3] came out at 96.8%.

Turning to `CC(C)=CCC[C@](C)(O)[C@H]1CC[C@]2(C)[C@@H]1[C@H](O)C[C@@H]1[C@@]3(C)Cc4nonc4C(C)(C)[C@@H]3CC[C@]12C`, the Activity result in the data set with BMMC [1] is recorded as “>= 100%”. Also, the inhibition at 1 µM in the data set with BMMC [4] worked out at 18.8%. The inhibition at 5 µM in the data set on BMMC [5] stood at 64.2%.

With `CCc1ncc2c(n1)C(C)(C)[C@@H]1CC[C@]3(C)[C@H](C[C@@H](O)[C@@H]4[C@@H]([C@@](C)(O)CCC=C(C)C)CC[C@]43C)[C@@]1(C)C2`, in the data set with BMMC [1], the Activity entry is “>= 100%”. Besides, the inhibition at 1 µM in the data set on BMMC [4] came out at 100%. For the same molecule, the inhibition at 0.1 µM in the data set on BMMC [3] was 90.4%.

One may read the IC50 as the concentration at which inhibition is half-maximal. For the molecule `CC(C)=CCC[C@](C)(O)[C@H]1CC[C@]2(C)[C@@H]1[C@H](O)C[C@@H]1[C@@]3(C)CC[C@H](O)C(C)(C)[C@@H]3CC[C@]12C`, the Activity result with BMMC [1] is recorded as “>= 100%”. The inhibition at 1 µM with BMMC [4] stood at 10.2%. For the same molecule, in the data set on BMMC [6], the IC50 is 11.8 µM. In addition, the inhibition at 5 µM with BMMC [5] is 63.9%.

As for `CC(C)=CCC[C@](C)(O)[C@H]1CC[C@]2(C)[C@@H]1[C@H](O)C[C@@H]1[C@@]3(C)Cc4cnoc4C(C)(C)[C@@H]3CC[C@]12C`, the Activity result in the data set with BMMC [1] is recorded as “>= 100%”. For the same molecule, the inhibition at 1 µM in the data set on BMMC [4] stood at 3.2%. Moreover, the inhibition at 5 µM in the data set on BMMC [5] turned out to be 71.5%.

Consider `CC(C)=CCC[C@](C)(O)[C@H]1CC[C@]2(C)[C@@H]1[C@H](O)C[C@@H]1[C@@]3(C)Cc4cnc(N)nc4C(C)(C)[C@@H]3CC[C@]12C`, for which the Activity entry with BMMC [1] is “>= 100%”. Also, the inhibition at 1 µM in the data set on BMMC [4] came out at 100%. Besides, the inhibition at 0.1 µM in the data set on BMMC [3] came out at 51.2%.
